The structures appear in SMILES notation. Calls of active or inactive are those of the source.

The source of these data is ChEMBL document CHEMBL1201862, “PubChem BioAssay data set” (2004).

For experiment [1], the target named is T1, Fatty acid synthase (Homo sapiens, UniProt P49327). Nature of the experiment: FAS thioesterase domain inhibitors, dose response, biochemical, kinetic fluorescence intensity (AID 624326).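 Also: rate of fluorescence rise from hydrolysis of a fluorogenic O-methyl fluorescein ester substrate.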 Format: functional.
Experiment [2] has as its target T1, Fatty acid synthase. Put plainly: FAS thioesterase domain inhibitors, dose response, biochemical, endpoint fluorescence intensity, uHTS hits (AID 624327).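 Also: fluorescence from hydrolysis of an O-methyl fluorescein acyl ester substrate by the enzyme.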 Type of experiment: functional.
Experiment [3] is described as follows: cells. Type of experiment: functional, cell-based.
A short description of experiment [4]: cells. Type of experiment: functional, cell-based. The source holds these as a separate data set.
Experiment [5] is described as follows: THP-1 cell cytotoxicity, dose response, cytotoxicity control for non-replicating M. tuberculosis project (AID 489025). Type of experiment: functional.
Experiment [6] has as its target T2, Calpain-2 catalytic subunit (Sus scrofa, UniProt P43367).
T2 sequence (P43367 whole entry): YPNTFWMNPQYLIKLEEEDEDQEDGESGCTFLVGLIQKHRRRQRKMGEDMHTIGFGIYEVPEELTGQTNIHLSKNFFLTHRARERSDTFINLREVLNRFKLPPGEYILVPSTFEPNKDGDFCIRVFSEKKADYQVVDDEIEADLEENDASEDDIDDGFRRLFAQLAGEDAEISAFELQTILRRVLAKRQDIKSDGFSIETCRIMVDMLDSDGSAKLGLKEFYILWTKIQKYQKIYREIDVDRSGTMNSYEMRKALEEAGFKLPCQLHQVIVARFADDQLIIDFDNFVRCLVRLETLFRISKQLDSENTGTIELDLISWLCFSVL
Put plainly: pig calpain II inhibitor potency, dose response, biochemical, fluorogenic peptide substrate (AID 1420). Format: functional.

Experiment [7] concerns the target T3, Leucine aminopeptidase (Plasmodium falciparum 3D7, UniProt Q8IL11).
T3 sequence (Q8IL11 whole entry): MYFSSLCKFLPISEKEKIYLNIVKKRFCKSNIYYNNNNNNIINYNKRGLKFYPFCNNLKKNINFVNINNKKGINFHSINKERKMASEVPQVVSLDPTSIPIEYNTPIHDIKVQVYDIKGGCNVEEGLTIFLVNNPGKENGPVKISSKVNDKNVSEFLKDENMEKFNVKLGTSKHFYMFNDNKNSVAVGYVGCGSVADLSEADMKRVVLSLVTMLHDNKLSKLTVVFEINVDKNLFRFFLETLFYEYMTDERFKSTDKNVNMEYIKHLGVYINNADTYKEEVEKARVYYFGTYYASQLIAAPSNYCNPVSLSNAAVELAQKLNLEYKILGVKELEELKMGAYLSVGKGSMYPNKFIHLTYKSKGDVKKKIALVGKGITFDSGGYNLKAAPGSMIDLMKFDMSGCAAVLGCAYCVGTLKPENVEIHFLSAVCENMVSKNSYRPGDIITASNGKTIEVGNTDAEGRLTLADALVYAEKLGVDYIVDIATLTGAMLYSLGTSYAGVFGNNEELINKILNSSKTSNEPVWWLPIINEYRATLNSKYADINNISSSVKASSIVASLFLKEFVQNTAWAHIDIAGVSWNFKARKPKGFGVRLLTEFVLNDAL
Nature of the experiment: P. falciparum M17LAP inhibitors, primary screen, biochemical, fluorogenic H-Leu-NHMec substrate, 1536-well (AID 1619). Type of experiment: functional.

The nature of experiment [8]: inhibitors of HIV Env-driven cell fusion, dose response, cherry-pick (AID 652057). Type of experiment: functional, cell-based.
A short description of experiment [9]: ZM109 Env clade C HIV-1 fusion inhibitors, dose response, HeLa effector, CEM target cells, luciferase, cherry-pick (AID 652058). Format: functional, cell-based.
A short description of experiment [10]: inhibitors of clade B AD8 Env fusion, dose response, cell-based, cherry-pick (AID 652062).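 Also: luciferase signal from cell-cell fusion driven by HIV-1 clade B AD8 Env; potency is for inhibitors of fusion seen as a drop in luminescence.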 Format: functional.
The nature of experiment [11]: off-target signal loss in HeLa-CEM21 co-culture – HeLa F-luc CTL cells, cherry-picked, counter-screen for HIV-1 Env fusion inhibitor project, dose response (AID 652040).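 Also: potency for signal decrease marking cytotoxic or nonspecific inhibition.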 Format: functional, cell-based.

T1 sequence (P49327 whole entry, the tested form may be a part): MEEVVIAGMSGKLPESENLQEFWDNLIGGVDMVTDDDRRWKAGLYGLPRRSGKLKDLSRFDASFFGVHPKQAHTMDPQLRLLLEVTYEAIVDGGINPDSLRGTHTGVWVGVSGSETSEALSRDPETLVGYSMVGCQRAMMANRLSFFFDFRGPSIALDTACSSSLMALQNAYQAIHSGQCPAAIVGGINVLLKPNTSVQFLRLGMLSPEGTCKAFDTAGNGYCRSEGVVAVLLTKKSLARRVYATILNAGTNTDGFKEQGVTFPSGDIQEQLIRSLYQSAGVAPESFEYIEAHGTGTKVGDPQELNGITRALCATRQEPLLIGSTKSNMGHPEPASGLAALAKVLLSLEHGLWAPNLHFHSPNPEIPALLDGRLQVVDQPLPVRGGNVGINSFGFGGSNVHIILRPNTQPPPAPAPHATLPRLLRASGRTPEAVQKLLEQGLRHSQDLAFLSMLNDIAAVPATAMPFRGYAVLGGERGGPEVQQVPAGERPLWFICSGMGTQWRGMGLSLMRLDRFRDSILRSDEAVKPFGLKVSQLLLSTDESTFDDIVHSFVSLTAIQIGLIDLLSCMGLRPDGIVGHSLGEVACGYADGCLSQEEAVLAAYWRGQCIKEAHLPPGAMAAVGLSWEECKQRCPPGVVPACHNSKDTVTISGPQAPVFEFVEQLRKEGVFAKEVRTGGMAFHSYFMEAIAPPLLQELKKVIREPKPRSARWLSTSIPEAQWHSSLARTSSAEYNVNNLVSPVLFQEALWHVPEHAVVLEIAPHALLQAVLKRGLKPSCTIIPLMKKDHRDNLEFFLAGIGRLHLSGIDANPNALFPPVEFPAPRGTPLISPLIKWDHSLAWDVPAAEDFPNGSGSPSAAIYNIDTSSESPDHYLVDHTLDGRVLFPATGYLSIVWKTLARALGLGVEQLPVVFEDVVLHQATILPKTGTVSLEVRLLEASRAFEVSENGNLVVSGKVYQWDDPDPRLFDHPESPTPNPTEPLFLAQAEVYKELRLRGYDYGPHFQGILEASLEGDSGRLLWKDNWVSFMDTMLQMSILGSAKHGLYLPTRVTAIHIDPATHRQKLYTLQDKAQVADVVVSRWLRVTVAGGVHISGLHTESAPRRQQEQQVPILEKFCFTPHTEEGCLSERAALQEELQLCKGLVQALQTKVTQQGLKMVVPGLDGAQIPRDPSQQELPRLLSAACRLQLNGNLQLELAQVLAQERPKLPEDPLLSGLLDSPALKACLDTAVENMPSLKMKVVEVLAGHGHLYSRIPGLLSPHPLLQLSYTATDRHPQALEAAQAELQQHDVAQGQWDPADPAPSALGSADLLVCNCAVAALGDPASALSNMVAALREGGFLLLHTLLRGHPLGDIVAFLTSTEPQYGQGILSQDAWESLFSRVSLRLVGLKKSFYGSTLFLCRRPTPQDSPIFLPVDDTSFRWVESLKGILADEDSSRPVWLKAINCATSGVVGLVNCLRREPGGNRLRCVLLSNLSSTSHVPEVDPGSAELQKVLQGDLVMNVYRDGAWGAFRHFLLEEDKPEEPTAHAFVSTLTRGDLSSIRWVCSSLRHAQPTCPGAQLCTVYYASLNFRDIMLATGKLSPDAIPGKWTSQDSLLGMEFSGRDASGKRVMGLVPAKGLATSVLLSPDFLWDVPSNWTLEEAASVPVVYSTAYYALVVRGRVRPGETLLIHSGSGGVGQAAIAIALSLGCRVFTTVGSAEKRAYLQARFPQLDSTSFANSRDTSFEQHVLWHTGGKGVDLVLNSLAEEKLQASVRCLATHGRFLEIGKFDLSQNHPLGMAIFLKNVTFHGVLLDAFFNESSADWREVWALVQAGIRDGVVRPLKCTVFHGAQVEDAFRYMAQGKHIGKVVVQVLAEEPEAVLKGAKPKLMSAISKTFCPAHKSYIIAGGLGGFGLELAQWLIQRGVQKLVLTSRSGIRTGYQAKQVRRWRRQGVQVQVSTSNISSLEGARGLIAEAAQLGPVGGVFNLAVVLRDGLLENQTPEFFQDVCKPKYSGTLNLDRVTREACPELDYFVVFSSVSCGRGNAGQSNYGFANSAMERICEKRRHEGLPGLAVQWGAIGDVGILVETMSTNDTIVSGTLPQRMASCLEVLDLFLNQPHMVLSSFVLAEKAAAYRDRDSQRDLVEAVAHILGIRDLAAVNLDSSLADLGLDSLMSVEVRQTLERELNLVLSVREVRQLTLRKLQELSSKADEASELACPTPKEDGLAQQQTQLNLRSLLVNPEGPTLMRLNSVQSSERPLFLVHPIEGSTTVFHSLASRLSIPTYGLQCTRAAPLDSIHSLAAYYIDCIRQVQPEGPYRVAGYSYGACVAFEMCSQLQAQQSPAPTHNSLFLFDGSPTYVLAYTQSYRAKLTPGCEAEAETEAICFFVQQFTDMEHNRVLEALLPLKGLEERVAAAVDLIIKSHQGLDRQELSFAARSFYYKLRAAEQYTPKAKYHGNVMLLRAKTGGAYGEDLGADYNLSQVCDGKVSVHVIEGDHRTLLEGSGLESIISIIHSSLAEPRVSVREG

Regarding `COc1ccc([N+](=O)[O-])cc1NC(=O)C1(c2ccccc2)CCOCC1`, the IC50 in [1] is 16.5 µM (active); in [2], 19.6 µM (active).
Turning to `Cc1onc(-c2c(Cl)cccc2Cl)c1C(=O)N=C(N)N1CCCC1`, the EC50 in [3] and in experiment [4] was > 350 µM (not active) throughout.
`CC(NC(=O)C(C(=O)c1cccc([N+](=O)[O-])c1)n1cc(Cl)ccc1=O)c1ccccc1` (configuration not stated): the IC50 in experiment [1] was 7.89 µM (active); in experiment [2], 8.63 µM (active).
Consider `CC(C)=CC1C(C(=O)Nc2ccc(Br)cn2)C1(C)C` (configuration not stated), for which, in experiment [5], the CC50 was > 40 µM (active). The IC50 in experiment [6] was 6.34 µM (not active).
As for `COc1ccc(-c2cc(=O)oc3c(C)c(OCc4nn[nH]n4)ccc23)cc1`, the IC50 is 5.32 µM (active) in experiment [1] and 9.18 µM (active) in experiment [2].
The matching figures for `CC(=O)N1N=C(c2cccc([N+](=O)[O-])c2)OC1c1cccc(Br)c1` (configuration not stated): 11.9 µM (active) and 9.14 µM (active).
Turning to `CCN(CC)c1ccc(NC(=O)Cn2nnc(-c3cccc(OC)c3OC)n2)c(C)c1`, the EC50 in [3] and in [4] was > 350 µM (not active) each time. Besides, the IC50 in experiment [7] is < 1 µM (active).
For the molecule `COC(=O)c1cc(C(=O)NCc2ccc3c(c2)OCO3)cc([N+](=O)[O-])c1`, the results for the IC50 in experiment [1] and in [2] were 11.7 µM (active) and 11.1 µM (active), respectively.
In the case of `CCn1cc([N+](=O)[O-])c(C(=O)N2N=C(c3ccccc3)CC2c2ccc([N+](=O)[O-])cc2)n1` (configuration not stated), the IC50 in [1] was 13.2 µM (active); in experiment [2], 15.6 µM (active).
Take `O=C1NCCN(Cc2cccc(Oc3ccccc3)c2)C1CC(=O)N1CCCCC1` (configuration not stated): the AC50 is 3.76 µM (active) in [8], 10.9 µM (active) in [9], 8.77 µM (active) in experiment [10] and 11.1 µM (active) in experiment [11].
The corresponding values for `Cc1ccc(C(C(=O)NC2CCCCC2)N(C(=O)c2csnn2)C2CCCC2)o1` (configuration not stated) are 14.1 µM (active), 3.63 µM (active), 6.08 µM (active) and 13.5 µM (active).
Regarding `O=C(Cn1ncc2c(=O)oc3ccccc3c21)N1CCC(N2CCCCC2)CC1`, the AC50 in [10] is 2.31 µM (active); in [11], 38.2 µM (active).
As for `CC1CCN(C(=O)COC(=O)c2cc([N+](=O)[O-])ccc2N2CCOCC2)CC1`, the IC50 in experiment [1] is 5.23 µM (active); in experiment [2], 3.58 µM (active).
The corresponding values for `Cc1cc(=O)oc2cc(OCC(=O)N3CCN(C(C)c4ccccc4)CC3)c(Cl)cc12` (configuration not stated) are 8.55 µM (active) and 8.39 µM (active).
Turning to `CN(c1ccccc1)S(=O)(=O)c1cccc(NC(=O)CCNC(=O)c2ccc([N+](=O)[O-])cc2)c1`, the results for the IC50 in experiment [1] and in experiment [2] were 9.59 µM (active) and 7.63 µM (active), respectively.
The corresponding values for `CCOC(=O)[C@@H]1[C@H]2COc3cc(OC)ccc3[C@H]2N2C(=O)N(c3cccc(Cl)c3)C(=O)[C@@]12C` are 13.6 µM (active) and 23.7 µM (inactive).
The matching figures for `COc1ccc(CN(C)C(=O)COC(=O)c2cc([N+](=O)[O-])ccc2N2CCCC2)c(OC)c1OC`: 6.71 µM (active) and 5.42 µM (active).
On to `Cc1ccc(S(=O)(=O)c2nnn3c2nc(N2CCC(C(N)=O)CC2)c2ccccc23)cc1C`, for which the figures for the IC50 in experiment [1] and in experiment [2] were 8.84 µM (active) and 11.4 µM (active), respectively.
The matching figures for `CCc1nc2c(OCc3ccc(Cl)cc3)cccn2c1N(C=O)Cc1ccccc1`: 3.71 µM (active) and 6.9 µM (active).
With `CCCc1nc2ccccc2c(=O)n1/N=C/c1ccccc1O`, the EC50 in experiment [3] and in experiment [4] was > 350 µM (not active) in each case.
For the molecule `C/C=C/C=N/NC(=O)CN(c1ccc(Br)cc1)S(=O)(=O)c1ccccc1`, the IC50 in experiment [1] is 10.1 µM (active); in experiment [2], 10.6 µM (active).
